Test results from patent US9901525B2, “External use skin composition, containing Lentinula edodes-derived ergosterol” (Amorepacific Corporation, priority 2013, dated 2018).

Legend:
Melan-a cell [1] = assay: Melanin analysis of melan-a cell (melanin content); format: cell-based, mouse; settings: melan-a cells (FIG. 3); for effect inhibiting the melanin production: 10 μM, corresponds to 4.44 ppm; for effect of inhibiting melanin production: 0.1, 1, 10 μM, 6 days; for skin whitening effect compared with positive controls (50 ppm arbutin, 50 ppm kojic acid): much less amount than the controls
Procedure: (§1) Melanin-forming cell (melanocyte) derived from C57BL/6J mouse, melan-a cell was cultured by using RPMI-1640 medium (Lonza, USA) with 10% FBS (Fetal Bovine Serum; bovine fetal serum) and 50 U/ml penicillin, 50 μg/ml streptomycin under the condition of 37° C., 10% CO2 and then used in the following experiment.
The Melan-a cell cultured by the method of the Reference Example 2 was seeded on 48 well plate so as to be 1.5×10^4 of the cell number per well and then, cultured for 24 hours. Then, a new medium containing various concentrations (0.1, 1, 10 μM) of 3β, 5α-dihydroxy-6β-methoxy-(22E, 24R)-ergosta-7,22-diene or 3β, 5α, 9α-trihydroxy-(22E, 24R)-ergosta-7,22-diene-6-one isolated from the Reference Example 1 was treated. At this time, in order to compare it, a medium containing 50 ppm of arbutin or 50 ppm of kojic acid was used as a positive control. The medium was treated for 6 days, and after three days, a new medium was exchanged. After 6 days, the cell was washed with DPBS and then, was added with 2N NaOH (10% DMSO) and dissolved at 60° C. for 1 hour. The cell lysate dissolved was moved into 96 well plates and then its absorbance (OD 475) was measured. The measured value was calculated as melanin content from the standard curve for the synthesized melanin, and the melanin content calculated was standardized by the total amount of the protein of each experimental group, and then it was compared with the control to estimate the efficiency. The results are represented in FIG. 3.
In addition, in order to compare the whitening effect of 3β, 5α-dihydroxy-6β-methoxy-(22E, 24R)-ergosta-7,22-diene and 3β, 5α, 9α-trihydroxy-(22E, 24R)-ergosta-7,22-diene-6-one with that of Lentinula edodes extract, the separate melan-a cell melanin assay experiment was performed with the same method as the above. At this time, 50 ppm of arbutin or 12.5, 25, 50, 100 ppm of ethanol extracts of Lentinula edodes obtained from the Reference Example 1 were used, and used by containing them in the medium for the cell culture. The results were represented in FIG. 4.

Melan-a cell [2] = assay: Cytotoxic test (MTT assay), survival rate of cells; format: cell-based, mouse; settings: 50 ppm, melan-a cells (FIG. 2)
Procedure: as §1
Melan-a cell cultured by the method of the Reference Example 2 was seeded on 96 well plates so as to be 1.0×10^4 of cell number and then, cultured for 24 hours. […] Absorbance (OD 570) was determined by using microplate reader (Product Name: Synergy 2 (BioTek)), and a survival rate of the cell was determined by comparing it with the control. […]
The method similar to the Experimental Example 1 was used, except that 50 ppm arbutin, Lentinula edodes extracts (12.5, 25, 50, 100 ppm) were used as the sample treated. Absorbance (OD 570) was measured by using microplate reader (Product Name: Synergy 2 (BioTek)), and a survival rate of the cell was determined by comparing it with the control. […]

Compound | effect inhibiting the melanin production (Melan-a cell [1]) | effect of inhibiting melanin production (Melan-a cell [1]) | skin whitening effect compared with positive controls (50 ppm arbutin, 50 ppm kojic acid) (Melan-a cell [1]) | effect on the cell growth (survival rate, MTT) (Melan-a cell [2])
CO[C@@H]1C=C2[C@@H]3CC[C@H]([C@H](C)/C=C/[C@H](C)C(C)C)[C@@]3(C)CC[C@@H]2[C@@]2(C)CC[C@H](O)C[C@]12O [3β, 5α-dihydroxy-6β-methoxy-(22E, 24R)-ergosta-7,22-diene] | remarkable effect inhibiting the melanin production | exhibits the effect of inhibiting a melanin production | remarkably excellent skin whitening effect than albumin and kojic acid | 
CC(C)[C@@H](C)/C=C/[C@@H](C)[C@H]1CC[C@H]2C3=CC(=O)[C@@]4(O)C[C@@H](O)CC[C@]4(C)[C@@]3(O)CC[C@]12C [3β, 5α, 9α-trihydroxy-(22E, 24R)-ergosta-7,22-diene-6-one] | remarkable effect inhibiting the melanin production | exhibits the effect of inhibiting a melanin production | remarkably excellent skin whitening effect than albumin and kojic acid | 
OC[C@H]1O[C@@H](Oc2ccc(O)cc2)[C@H](O)[C@@H](O)[C@@H]1O [arbutin] |  |  |  | did not affect the cell growth
